Data reported in patent US20260132140A1, “IMIDAZOLYL-AMINO-PYRAZINE-CARBONITRILS AS CHK-1 INHIBITORS” (BenevolentAI Bio Limited, priority 2022, published 2026).
pIC50: −log10 of the molar value. Like-named read-outs stand apart in the source and are kept apart here.

What was measured:
[1] = system: GBM LN18 cells; test: In vitro cell viability assay (Cell Titre Glo, 72 hours); format: cell-based; settings: Homo sapiens, LN-18, read-out: LN18 pIC50 (converted)
Protocol: GBM LN18 cells were incubated with increasing concentrations of selected compounds of the invention for 72 hours prior to the measurement of ATP in metabolically viable cells with the Cell Titre® Glo Luminescent reagent. A 10-point concentration response curve up to a maximum concentration of 10 μM was tested.
The percent (%) effect i.e., inhibition at each concentration of compound was calculated based on, and relative to the amount of inhibition produced in the vehicle control and inhibited control wells contained within each plate.

[2] = system: pChk1(Ser296) in SW620 cells; test: pChk1(Ser296) sandwich ELISA, cell-based on-target kinase activity; settings: Homo sapiens, read-out: SW620 pIC50 (converted)
Protocol: ELISA assays were performed as per the manufacturer's protocol. […] Selected compounds of the invention were tested as a 8-point concentration response up to a maximum concentration of either 1 μM, 3 μM or 10 μM. The percent (%) effect i.e. inhibition at each concentration of compound was calculated based on, and relative to, the amount of inhibition produced in the vehicle control and inhibited control wells contained within each plate.

[3] = target: T1, human Chk1 kinase (Homo sapiens, UniProt O14757); test: biochemical
T1 sequence (O14757 1-476): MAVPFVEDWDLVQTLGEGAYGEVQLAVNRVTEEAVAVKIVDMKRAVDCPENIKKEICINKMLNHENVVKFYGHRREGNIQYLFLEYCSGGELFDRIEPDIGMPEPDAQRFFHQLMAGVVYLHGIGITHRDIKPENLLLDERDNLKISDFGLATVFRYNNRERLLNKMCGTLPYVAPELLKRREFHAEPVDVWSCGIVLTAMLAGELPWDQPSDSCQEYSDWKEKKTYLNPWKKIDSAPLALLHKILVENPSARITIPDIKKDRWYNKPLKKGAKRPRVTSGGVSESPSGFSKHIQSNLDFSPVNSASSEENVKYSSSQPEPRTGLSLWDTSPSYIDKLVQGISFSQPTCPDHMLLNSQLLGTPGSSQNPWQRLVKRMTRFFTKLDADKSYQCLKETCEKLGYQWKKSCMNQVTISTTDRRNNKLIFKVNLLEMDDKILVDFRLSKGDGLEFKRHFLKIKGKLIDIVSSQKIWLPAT

[4] = target: human Chk2 kinase (Homo sapiens, UniProt O96017); test: biochemical
Chain of human Chk2 kinase (O96017 whole entry): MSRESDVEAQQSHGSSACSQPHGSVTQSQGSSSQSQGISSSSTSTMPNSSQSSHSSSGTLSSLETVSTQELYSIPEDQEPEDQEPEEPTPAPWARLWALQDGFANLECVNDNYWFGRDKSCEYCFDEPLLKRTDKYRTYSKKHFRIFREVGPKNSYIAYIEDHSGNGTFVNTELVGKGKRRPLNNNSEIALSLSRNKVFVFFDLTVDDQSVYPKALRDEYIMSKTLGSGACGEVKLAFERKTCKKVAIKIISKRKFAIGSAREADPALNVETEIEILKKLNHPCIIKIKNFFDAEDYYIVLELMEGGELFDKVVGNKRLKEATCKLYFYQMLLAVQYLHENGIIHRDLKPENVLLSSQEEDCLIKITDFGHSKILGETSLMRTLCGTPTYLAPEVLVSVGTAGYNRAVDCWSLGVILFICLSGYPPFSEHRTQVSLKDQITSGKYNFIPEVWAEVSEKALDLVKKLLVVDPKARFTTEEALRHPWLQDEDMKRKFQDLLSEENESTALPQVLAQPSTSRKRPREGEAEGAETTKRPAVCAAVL

[5] = SW-620, 2 h, neocarzinostatin 7.5 μM
[6] = SW-620, neocarzinostatin 7.5 μM, 2 hours

Row | Structure (SMILES) | IC50 [1] [µM] | IC50 [2, 5] [µM] | pIC50 [3] | pIC50 [4] | IC50 [2, 6] [µM]
1 | N#Cc1cnc(Nc2cn(-c3ccc(N4CCC(N5CCC5)C4)cc3)cn2)cn1 (single isomer, unassigned) [Example 113, 5-((1-(4-(3-(Azetidin-1-yl)pyrrolidin-1-yl)phenyl)-1H-imidazol-4-yl)amino)pyrazine-2-carbonitrile] | < 1 | 1 to 10 | 7.50 to 8.00 | 4.00 to 5.00 | –
2 | CN1C[C@@H]2CN(c3ccc(-n4cnc(Nc5cnc(C#N)cn5)c4)cc3)C[C@@H]21 [Example 1, 5-((1-(4-((1R,5R)-6-Methyl-3,6-diazabicyclo[3.2.0]heptan-3-yl)phenyl)-1H-imidazol-4-yl)amino)pyrazine-2-carbonitrile] | < 1 | 1 to 10 | > 8.00 | 5.00 to 6.00 | –
3 | COc1cc(N2CC[C@@H](N(C)C)C2)ccc1-n1cnc(Nc2cnc(C#N)cn2)c1 [Example 47, (R)-5-((1-(4-(3-(Dimethylamino)pyrrolidin-1-yl)-2-methoxyphenyl)-1H-imidazol-4-yl)amino)pyrazine-2-carbonitrile] | < 1 | – | – | – | < 1
4 | CN(C)[C@@H]1CCN(c2cnc(-n3cnc(Nc4cnc(C#N)cn4)c3)cn2)C1 [Example 52, (R)-5-((1-(5-(3-(Dimethylamino)pyrrolidin-1-yl)pyrazin-2-yl)-1H-imidazol-4-yl)amino)pyrazine-2-carbonitrile] | 1 to 10 | – | 7.00 to 7.50 | 4.00 to 5.00 | –
5 | Cc1nc(-n2cnc(Nc3cnc(C#N)cn3)c2)ccc1N1CC[C@@H](N(C)C)C1 [Example 59, (R)-5-((1-(5-(3-(Dimethylamino)pyrrolidin-1-yl)-6-methylpyridin-2-yl)-1H-imidazol-4-yl)amino)pyrazine-2-carbonitrile] | < 1 | 1 to 10 | > 8.00 | 5.00 to 6.00 | –
6 | CN(C)[C@@H]1CCN(c2ccc(-n3cnc(Nc4cnc(C#N)cn4)c3)c(F)c2)C1 [Example 65, (R)-5-((1-(4-(3-(Dimethylamino)pyrrolidin-1-yl)-2-fluorophenyl)-1H-imidazol-4-yl)amino)pyrazine-2-carbonitrile] | < 1 | – | – | – | 1 to 10
7 | CN1C[C@@H]2CN(c3ccc(-n4cnc(Nc5cnc(C#N)cn5)c4)cc3)[C@@H]2C1 [Example 67, 5-((1-(4-((1R,5S)-3-Methyl-3,6-diazabicyclo[3.2.0]heptan-6-yl)phenyl)-1H-imidazol-4-yl)amino)pyrazine-2-carbonitrile] | < 1 | – | 7.00 to 7.50 | 4.00 to 5.00 | –
8 | CN1C[C@H]2CN(c3ccc(-n4cnc(Nc5cnc(C#N)cn5)c4)cc3)[C@H]2C1 [Example 68, 5-((1-(4-((1S,5R)-3-Methyl-3,6-diazabicyclo[3.2.0]heptan-6-yl)phenyl)-1H-imidazol-4-yl)amino)pyrazine-2-carbonitrile] | < 1 | – | 7.00 to 7.50 | 4.00 to 5.00 | –
9 | CN1CC2(CCN(c3ccc(-n4cnc(Nc5cnc(C#N)cn5)c4)cc3)C2)C1 [Example 69, 5-((1-(4-(2-Methyl-2,6-diazaspiro[3.4]octan-6-yl)phenyl)-1H-imidazol-4-yl)amino)pyrazine-2-carbonitrile] | 1 to 10 | – | 7.50 to 8.00 | 4.00 to 5.00 | –
10 | CN(C)[C@@H]1CCN(c2ccc(-n3cnc(Nc4cnc(C#N)cn4)c3)c(C(F)(F)F)c2)C1 [Example 71, (R)-5-((1-(4-(3-(Dimethylamino)pyrrolidin-1-yl)-2-(trifluoromethyl)phenyl)-1H-imidazol-4-yl)amino)pyrazine-2-carbonitrile] | < 1 | – | 6.50 to 7.00 | < 4.00 | –
11 | C[C@@H]1C[C@@H](N(C)C)CN1c1ccc(-n2cnc(Nc3cnc(C#N)cn3)c2)cc1 [Example 74, 5-((1-(4-((2R,4R)-4-(Dimethylamino)-2-methylpyrrolidin-1-yl)phenyl)-1H-imidazol-4-yl)amino)pyrazine-2-carbonitrile] | < 1 | – | – | – | < 1
12 | C[C@@H]1CN(c2ccc(-n3cnc(Nc4cnc(C#N)cn4)c3)cc2)C[C@@H]1N(C)C [Example 76, 5-((1-(4-((3R,4R)-3-(Dimethylamino)-4-methylpyrrolidin-1-yl)phenyl)-1H-imidazol-4-yl)amino)pyrazine-2-carbonitrile] | < 1 | – | 7.50 to 8.00 | 4.00 to 5.00 | –
13 | CN(C)[C@@H]1CCN(c2ccc(-n3cnc(Nc4cnc(C#N)cn4)c3)cc2F)C1 [Example 79, (R)-5-((1-(4-(3-(Dimethylamino)pyrrolidin-1-yl)-3-fluorophenyl)-1H-imidazol-4-yl)amino)pyrazine-2-carbonitrile] | < 1 | – | > 8.00 | 5.00 to 6.00 | –
14 | CN(C)c1cc(N2CC[C@@H](N(C)C)C2)ccc1-n1cnc(Nc2cnc(C#N)cn2)c1 [Example 83, (R)-5-((1-(2-(Dimethylamino)-4-(3-(dimethylamino)pyrrolidin-1-yl)phenyl)-1H-imidazol-4-yl)amino)pyrazine-2-carbonitrile] | 1 to 10 | – | 6.00 to 6.50 | 4.00 to 5.00 | –
15 | [2H]C([2H])([2H])N([C@@H]1CCN(c2ccc(-n3cnc(Nc4cnc(C#N)cn4)c3)cc2)C1)C([2H])([2H])[2H] [Example 84, (R)-5-((1-(4-(3-(Bis(methyl-d3)amino)pyrrolidin-1-yl)phenyl)-1H-imidazol-4-yl)amino)pyrazine-2-carbonitrile] | < 1 | – | > 8.00 | – | 1 to 10
16 | CCN(C)[C@@H]1CCN(c2ccc(-n3cnc(Nc4cnc(C#N)cn4)c3)cc2)C1 [Example 89, (R)-5-((1-(4-(3-(Ethyl(methyl)amino)pyrrolidin-1-yl)phenyl)-1H-imidazol-4-yl)amino)pyrazine-2-carbonitrile] | < 1 | – | > 8.00 | 5.00 to 6.00 | –
17 | CCN(C)[C@@H]1CCN(c2ccc(-n3cnc(Nc4cnc(C#N)cn4)c3)nc2)C1 [Example 90, (R)-5-((1-(5-(3-(Ethyl(methyl)amino)pyrrolidin-1-yl)pyridin-2-yl)-1H-imidazol-4-yl)amino)pyrazine-2-carbonitrile] | < 1 | – | 7.50 to 8.00 | 5.00 to 6.00 | –
18 | CC(C)N[C@@H]1CCN(c2ccc(-n3cnc(Nc4cnc(C#N)cn4)c3)cc2)C1 [Example 96, (R)-5-((1-(4-(3-(Isopropylamino)pyrrolidin-1-yl)phenyl)-1H-imidazol-4-yl)amino)pyrazine-2-carbonitrile] | < 1 | – | 7.50 to 8.00 | 4.00 to 5.00 | –
19 | C[N+](C)([O-])[C@@H]1CCN(c2ccc(-n3cnc(Nc4cnc(C#N)cn4)c3)cc2)C1 [Example 141, (R)-1-(4-(4-((5-Cyanopyrazin-2-yl)amino)-1H-imidazol-1-yl)phenyl)-N,N-dimethylpyrrolidin-3-amine oxide] | 1 to 10 | – | 6.50 to 7.00 | 4.00 to 5.00 | –
20 | N#Cc1cnc(Nc2cn(-c3ccc(OCCN)cc3)cn2)cn1 [Example 150, 5-((1-(4-(2-Aminoethoxy)phenyl)-1H-imidazol-4-yl)amino)pyrazine-2-carbonitrile] | 1 to 10 | – | – | – | –
21 | N#Cc1cnc(Nc2cn(-c3ccc(N4C[C@H](N)[C@@H](F)C4)cc3)cn2)cn1 [Example 152, 5-((1-(4-((3S,4S)-3-Amino-4-fluoropyrrolidin-1-yl)phenyl)-1H-imidazol-4-yl)amino)pyrazine-2-carbonitrile] | 1 to 10 | – | 7.50 to 8.00 | 4.00 to 5.00 | –
22 | N#Cc1cnc(Nc2cn(-c3ccc(N4C[C@@H](F)[C@@H](N)C4)cc3)cn2)cn1 [Example 157, 5-((1-(4-((3S,4R)-3-Amino-4-fluoropyrrolidin-1-yl)phenyl)-1H-imidazol-4-yl)amino)pyrazine-2-carbonitrile] | 1 to 10 | – | > 8.00 | 4.00 to 5.00 | –
23 | N#Cc1cnc(Nc2cn(-c3ccc(N4CC(CN)C4)cc3)cn2)cn1 [Example 158, 5-((1-(4-(3-(Aminomethyl)azetidin-1-yl)phenyl)-1H-imidazol-4-yl)amino)pyrazine-2-carbonitrile] | 1 to 10 | – | 7.50 to 8.00 | 4.00 to 5.00 | –
24 | C[C@@H]1C[C@@H](N)CN1c1ccc(-n2cnc(Nc3cnc(C#N)cn3)c2)cc1 [Example 165, 5-((1-(4-((2R,4R)-4-Amino-2-methylpyrrolidin-1-yl)phenyl)-1H-imidazol-4-yl)amino)pyrazine-2-carbonitrile] | < 1 | – | > 8.00 | 5.00 to 6.00 | –
